Measured values as given in ChEMBL document CHEMBL1152881, “A heterocyclic molecule with significant activity against dengue virus” (Bioorg Med Chem Lett, 2009).
Converted amounts (≈) assume the structure as drawn. The source made the active and inactive calls. The calls are words filed in the database; no cut-off is given here.

Columns and labels:
dengue virus type 2 [1] = experiment: Antiviral activity against Dengue virus type 2 New Guinea C infected in african green monkey Vero cells assessed as inhibition of virus-induced cytopathic effect; format: functional, organism-based
[2] = Cytotoxicity against african green monkey Vero cells; format: cell-based; conditions: chlorocebus sabaeus
[3] = (§1) Therapeutic index, ratio of CC50 for african green monkey Vero cells to EC50 for Dengue virus type 2; format: cell-based; conditions: read-out: TI
dengue virus type 2 [4] = experiment: Antiviral activity against Dengue virus type 2 New Guinea C infected in african green monkey Vero cells assessed as inhibition of virus-induced cytopathic effect by viral yield reduction assay; format: functional
[5] = as §1; format: cell-based; conditions: read-out: TI; remark: listed apart in the source
Yellow fever virus = experiment: Antiviral activity against Yellow fever virus 17D by viral yield reduction assay; format: functional, organism-based
dengue virus type 2 [6] = experiment: Antiviral activity against Dengue virus type 2 New Guinea C infected in african green monkey Vero cells by neutral red uptake assay; format: functional, organism-based
[7] = as §1; format: cell-based; conditions: read-out: TI; remark: listed apart in the source

O=C(O)c1cnc2c(c1O)c(=O)n(Cc1ccccc1)c(=O)n2Cc1ccccc1
EC50 (dengue virus type 2 [1]): 5.7 µg/mL (≈ 14.1 µM)
CC50 [2]: > 100 µg/mL
selectivity ratio [3]: > 16
CC50 (dengue virus type 2 [4]): > 100 µg/mL
EC90 (dengue virus type 2 [4]): 3.8 µg/mL (≈ 9.42 µM)
selectivity ratio [5]: > 26
Activity (Yellow fever virus): Active
EC50 (dengue virus type 2 [6]): 6.3 µg/mL (≈ 15.6 µM)
selectivity ratio [7]: > 18
